Patent US20230203471A1, “METHOD AND PLATFORM FOR DISRUPTING INTRACELLULAR MICROTUBULES” (National Tsing Hua University, priority 2021, published 2023)

Tests used:
[1] = system: intracellular microtubules in HeLa cells; assay: Live-cell imaging of MT disruption (MT filament area) in transfected HeLa cells; format: cell-based; conditions: nocodazole 3.3 µM
[2] = system: intracellular microtubules in HeLa cells; assay: as above; format: cell-based
Description: The procedures of live-cell imaging are as follows. Live transfected cells cultured on poly(d-lysine)-coated glass coverslips (Hecht Assistent) were treated with either 100 nM rapamycin for rapid induction of protein dimerization and translocation or MT-targeting agents (10 µM nocodazole or 500 µM colchicine) during imaging. Live-cell imaging was conducted on a Nikon T1 inverted fluorescence microscope (Nikon) with a 60× oil objective (Nikon), a Prime camera (Photometrics), and 37° C., 5% CO2 heat stage (Live Cell Instrument). Rapid recruitment of proteins of interest (POIs) was imaged at 5- or 10-sec intervals, whereas the process of MT disruption was imaged at 1-min intervals. Images were obtained using Nikon NIS-Elements AR software and processed with Huygens Deconvolution Software (Scientific Volume Imaging). Image analysis was mainly performed with Nikon NIS-Elements AR software.
The procedures of measurement of MT filament area are as follows. The MT filaments in living cells were labeled with EMTB-CFP-FRB and imaged in real time (RAW image). The rolling ball correction was used to remove the cytosol background from the RAW images, which was carried out with the Nikon NIS-Elements AR software. Images were processed to generate the binary MT filament pattern via the Otsu threshold and analyzed by Fiji software.
FIGS. 2D and 2E show rapidly recruiting engineered spastins onto MTs. […] The top three layers are cells that simultaneously express EMTB-CFP-FRB and dNSpastin3Q-YFP-FKBP. The lower three layers are cells that simultaneously express EMTB-CFP-FRB and dNSpastin-YFP-FKBP-C2Lact. The color bar on the right indicates the brightness value represented by the color of the FRET signal. […] Data are shown as the mean ± S.E.M. It was noteworthy that MT disruption triggered by dNSpastin3Q-YFP-FKBP upon rapamycin treatment (T½ = 11.05 ± 1.52 min) was much faster than that of dNSpastin-YFP-FKBP-C2Lact upon rapamycin treatment (T½ = 53.08 ± 8.08 min), and treatment of two common MTAs, nocodazole (10 µM; T½ = 54.02 ± 10.29 min), colchicine (500 µM; T½ = 94.28 ± 8.63 min; see FIGS. 2F to 2J). […] In FIG. 2H, HeLa cells transfected with the indicated constructs were treated with nocodazole (Noc)([…], a type of MTA), colchicine (Col)(500 µM, a type of MTA), or rapamycin (Rapa)(100 nM); scale bar, 10 µm. […] Data are shown as the mean ± S.E.M. Student’s t-tests were performed, with the resulting p-values indicated.

Structure (SMILES): COC(=O)Nc1nc2ccc(C(=O)c3cccs3)cc2[nH]1 [nocodazole]
- time required to disrupt half of the intracellular microtubules [1]: 106.86 ± 12.11 min
- microtubules removed within one hour ([2]; 3.3 µM nocodazole): 31%
- T½ of MT disruption ([2]; nocodazole 10 µM, HeLa cells): 54.02 ± 10.29 min
